Measurements from PMC7155212 (Journal of Enzyme Inhibition and Medicinal Chemistry, 2020).

Tests used:
BuChE = BuChE (Equus caballus, UniProt P81908); experiment: Kinetic characterisation of BuChE inhibition (Lineweaver-Burk); assay type: biochemical; settings: Lineweaver-Burk plot, Figure 1B
Protocol: (§1) To obtain the mechanism of action of 13, reciprocal plots of 1/velocity versus 1/[substrate] were constructed at different concentrations of the substrate […] by using Ellman’s method. Compound 13 was added to the assay solution and preincubated with the enzyme at 37 °C for 5 min, followed by the addition of the substrate. Kinetic characterisation catalysed by enzyme was achieved spectrometrically at 412 nm. A parallel control experiment was carried out without compound 13 in the mixture. Lineweaver–Burk plot was made based on the reaction rate and substrate concentration to determine the type of inhibition of the ChE by the compound.

MAO-B = biological target: T1, MAO-B (Rattus norvegicus, UniProt P19643); experiment: In vitro MAO inhibitory activity (Holt method, crude enzyme from rat liver); assay type: biochemical, Wistar rat; settings: rat liver crude enzyme, 4-(trifluoromethyl)benzylamine substrate, mean ± SD (n = 3); read-out: IC50 value MAO-B inhibitory activity
T1 construct: The crude enzyme was extracted from the liver of 200–250 g of Wistar rats; from tissue; host or cells: liver of Wistar rats (crude enzyme)
T1 sequence (P19643 1-520): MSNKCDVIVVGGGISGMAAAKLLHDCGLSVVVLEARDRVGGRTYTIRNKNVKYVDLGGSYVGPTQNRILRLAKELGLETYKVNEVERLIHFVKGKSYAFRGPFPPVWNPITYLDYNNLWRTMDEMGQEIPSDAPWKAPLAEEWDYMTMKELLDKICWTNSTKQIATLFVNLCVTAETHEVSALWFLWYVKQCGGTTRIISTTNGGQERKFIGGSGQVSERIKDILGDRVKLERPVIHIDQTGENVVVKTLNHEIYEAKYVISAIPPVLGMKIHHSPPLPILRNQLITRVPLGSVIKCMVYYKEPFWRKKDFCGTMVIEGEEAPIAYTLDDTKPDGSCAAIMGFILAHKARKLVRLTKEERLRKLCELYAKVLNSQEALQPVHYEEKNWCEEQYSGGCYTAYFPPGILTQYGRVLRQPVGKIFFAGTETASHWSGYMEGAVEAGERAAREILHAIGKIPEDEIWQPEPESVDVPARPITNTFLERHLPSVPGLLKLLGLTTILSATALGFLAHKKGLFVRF
Protocol: The MAO inhibitory activity of the 3-arylbenzofuranone compounds was determined by the method of Holt et al.[17] with slight modifications. The crude enzyme was extracted from the liver of 200–250 g of Wistar rats according to literature methods[18]^,[19]. The crude enzyme protein content was determined by the Bradford method using a Bradford Protein Assay Kit (Beyotime). The assay was performed in 0.2 M potassium phosphate buffer pH 7.6 on 96-well plates in 240 μl total volume. The chromogenic solution containing 1 mM vanillic acid, 0.5 mM 4-aminoantipyrine, and 4 U/ml horseradish peroxidase in 0.2 M potassium phosphate buffer pH 7.6 was mixed anew for each measurement. 40 μL of enzyme solution and 40 μL of sample solution were added to a 96-well plate. The solution was then incubated at 37 °C for 20 min. 120 μL of the 4-(trifluoromethyl) benzylamine solution and 40 μL of the chromogenic solution were added subsequently and incubated at 37 °C for 90 min. The absorbance was measured at 490 nm using a microplate reader, and the inhibition rate of MAO and the IC50 value of each sample were calculated according to the formula. The control group replaced the sample solution with PBS (0.2 M, pH = 7.6), the positive control replaced the sample with the positive drug, and the blank group replaced the substrate with PBS, and each group was measured three times in parallel to average. Monoamine oxidase inhibitory effect (%) = [(AC – AB) – (AS – ASB )]/(AC – AB)×100% where AC is the absorbance of control group; AB is the absorbance of blank group; AS is the absorbance of sample group; ASB is the absorbance of sample blank group.

AChE = AChE (Electrophorus electricus, UniProt O42275); experiment: Kinetic characterisation of AChE inhibition (Lineweaver-Burk); assay type: biochemical; settings: Lineweaver-Burk plot, Figure 1A
Protocol: as §1

[1] = In vitro antioxidant activity (DPPH radical scavenging); settings: DPPH free radical scavenging, 30 min at 37 °C, mean ± SD (n = 3)
Protocol: The assay provides an assessment of the antioxidant activity due to free radical scavenging by measuring hydrogen atom (or one electron) donating activity. DPPH is a purple stable free radical that is reduced to a yellow-coloured diphenylpicryl hydrazine by an antioxidant. The spectrophotometric assay was carried out as described by the literature method with a slight modification. 100 μL of a sample solution was added to 100 μL of DPPH solution. Following 30 min of incubation at 37 °C and protection from light, the absorbance at 517 nm was determined using a microplate reader. Each group was measured three times in parallel to average. IC50 values were calculated. The percentage of DPPH radical scavenging rate of the target compound is calculated as follows: DPPH free radical scavenging effect (%)=[A0 – (A1−A2)]/A0×100% where A0 is the absorbance of blank group; A1 is the absorbance of sample group; A2 is the absorbance of sample blank group.

BuChE, sequence (P81908 whole entry): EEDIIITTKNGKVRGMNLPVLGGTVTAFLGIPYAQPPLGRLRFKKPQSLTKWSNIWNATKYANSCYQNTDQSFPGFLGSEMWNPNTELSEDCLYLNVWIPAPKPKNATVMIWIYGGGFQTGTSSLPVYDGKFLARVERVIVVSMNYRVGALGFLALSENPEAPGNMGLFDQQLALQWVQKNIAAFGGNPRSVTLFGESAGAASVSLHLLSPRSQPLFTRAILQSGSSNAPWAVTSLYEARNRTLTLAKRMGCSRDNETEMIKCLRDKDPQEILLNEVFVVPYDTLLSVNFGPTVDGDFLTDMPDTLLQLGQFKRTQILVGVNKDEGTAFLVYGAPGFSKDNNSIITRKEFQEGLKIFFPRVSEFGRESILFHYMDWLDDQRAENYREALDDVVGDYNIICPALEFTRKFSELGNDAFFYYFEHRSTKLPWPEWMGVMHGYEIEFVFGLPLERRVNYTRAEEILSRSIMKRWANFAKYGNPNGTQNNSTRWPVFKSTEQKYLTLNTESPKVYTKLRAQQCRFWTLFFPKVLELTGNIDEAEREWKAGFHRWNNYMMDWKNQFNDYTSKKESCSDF
AChE, sequence (O42275 24-633): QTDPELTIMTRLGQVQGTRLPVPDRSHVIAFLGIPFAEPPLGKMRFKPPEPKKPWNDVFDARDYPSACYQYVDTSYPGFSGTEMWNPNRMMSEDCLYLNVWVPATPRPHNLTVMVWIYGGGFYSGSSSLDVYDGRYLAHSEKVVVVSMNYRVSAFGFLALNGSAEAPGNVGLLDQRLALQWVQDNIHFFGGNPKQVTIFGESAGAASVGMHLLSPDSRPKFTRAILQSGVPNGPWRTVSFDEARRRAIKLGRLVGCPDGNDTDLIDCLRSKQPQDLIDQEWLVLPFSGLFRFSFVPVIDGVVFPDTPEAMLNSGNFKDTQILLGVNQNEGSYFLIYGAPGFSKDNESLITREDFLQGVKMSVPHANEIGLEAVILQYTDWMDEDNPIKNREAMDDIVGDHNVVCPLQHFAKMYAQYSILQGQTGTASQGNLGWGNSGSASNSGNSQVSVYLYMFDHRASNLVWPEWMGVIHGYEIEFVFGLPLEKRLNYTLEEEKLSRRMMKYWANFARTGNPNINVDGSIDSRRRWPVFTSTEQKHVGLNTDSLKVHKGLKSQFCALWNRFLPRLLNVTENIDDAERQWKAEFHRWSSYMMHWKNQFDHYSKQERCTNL

For COc1cc2c(cc1O)C(c1ccc(OC)c(OC)c1)C(=O)O2 (stereo not shown) [Compound 13, 5-Hydroxy-6-methoxy-3–(3′,4′-dimethoxyphenyl)-benzofuranone], the “inhibition mode against BuChE” value (BuChE) was “reversible inhibition”, the IC50 (MAO-B) was 11.2 ± 0.72 µM and the “inhibition mode against AChE” value (AChE) was “reversible inhibition”. It also gave an IC50 [1] of 5.33 ± 0.08 µM.
